One data set deals with HeLa cells. Put plainly: TAMRA-TCO comparative washout assay. The class given is cell-based. To be noted: 5 μM, 30 min incubation. An excerpt:
While TCO-derivatives offer rapid labeling kinetics, a consideration for labeling by fluorophore-tagged TCOs has been the background fluorescence due to non-covalent cellular binding that can be ameliorated only by extended washout times. More hydrophilic oxo- and dioxo-trans-cyclooctenes with backbone oxygens offer improvements, but are difficult to synthesize and, for dioxo-TCO, display reduced Diels-Alder kinetics. As shown in FIGS. 5A-5C, the fluorescent conjugates TAM RA-TCO, TAMRA-oxo-TCO and TAMRA-a-TCO were prepared and compared their cellular washout times to unconjugated TAMRA. Thus, HeLa cells were incubated for 30 min with TAMRA-dyes, and cells were initially washed three times with DPBS, and then cell media was exchanged after 10, 40 and 120 minutes. After each wash, cells were imaged live by fluorescence microscopy with illumination at 531 nm and fixed-intensity across all samples. Widefield images of the cells after 3 washes are shown in FIG. 5B; images after the earlier and later washings are shown in FIG. 8. Background fluorescence was quantified by dividing total fluorescence by the number of cells in each image (FIG. 5C).
HeLa cells were seeded at 5×10^3 cells per well in a poly-L-lysine (0.1 mg/mL) coated 48-well plate and allowed to grow for 48 hours in Dulbecco's modified eagle medium (DMEM, Life Technologies) supplemented with 5% FBS (Life Technologies), 1 mM L-glutamine, and 1% penicillin/streptomycin (Life Technologies). Cells were then incubated with media containing 5 μM of TAMRA-TCO, TAMRA-oxo-TCO, or TAMRA-a-TCO 12 (1 mM stock solutions in DMSO, diluted twice into media) for 30 mins at 37° C. All wells were washed three times with DPBS before adding fresh media. Cells were imaged after 2 DPBS washes and again after the 3rd DPBS wash, then incubated for additional time intervals: 10 minutes, 40 minutes, and 2 hour. At each time point, the media was removed from the designated wells and replaced with fresh media before imaging. Images were taken with an EVOS M7000 and all images were taken with the same laser power and gain. Fluorescence intensity was calculated for each sample in 3 replicates using ImageJ and the fluorescence data was normalized with the cell count of each image.

Data set [1] is described as follows: Stability in phosphate buffered D2O, pD=7.4 (33 mM) by quantitative 1H NMR. The class given is physicochemical. How it is done: (§1) Phosphate buffered D2O (pD=7.4) was prepared by combining anhydrous sodium dihydrogen phosphate (NaH2PO4, 77.1 mg) and anhydrous disodium hydrogen phosphate (Na2HPO4, 204.4 mg) with 20 mL of D2O to make a 0.1 M solution. The pD was measured on a Fisher Scientific AB15 Plus pH meter and pH values were converted to pD by adding 0.4 units. The pD was adjusted to 7.4 with DCI (35 wt. % in D2O) and NaOD (40 wt. % in D2O) as necessary.
A solution of 14 (4.3 mg, 25 μmol) in phosphate buffered D2O (750 μL, pD=7.4) was monitored by quantitative ^1H NMR on a 600 MHz instrument to observe the decomposition of the trans-isomer over time. Methyl tert-butyl ether (3.0 μL, 26 μmol) was used as an internal standard. After 1 day, 90% of 14 remained and after 5 days, 39% remained (FIG. 6B). The results were plotted using Prism software (Version 8.00, GraphPad Software Inc). A waterfall plot of the ^1H NMR spectra is provided.
A solution of 4a (3.2 mg, 25 μmol) in phosphate buffered D2O (750 μL, pD=7.4) was monitored by quantitative ^1H NMR on a 600 MHz instrument to observe the decomposition of the trans-isomer over time. Methyl tert-butyl ether (3.0 μL, 26 μmol) was used as an internal standard. After 1 day, 85% of 4a remained and after 5 days, 35% remained (FIG. 6B). The results were plotted using Prism software (Version 8.00, GraphPad Software Inc). A waterfall plot of the ^1H NMR spectra is provided.

Data set [2] can be described thus: Stopped-flow kinetics of the Diels-Alder reaction with tetrazine 20. The class given is physicochemical. To be noted: for Kobs: 95:5 PBS/MeOH, in s-1 (unit assumed). As for the experimental part:
The kinetics for the reaction of a-TCO derivative 14 toward a 3,6-dipyridyl-s-tetrazinyl succinamic acid derivative 20 were measured by stopped flow kinetics at 25° C. in 95:5 PBS:MeOH (FIG. 4A).
Stopped-flow kinetics measurements were performed on a SX18MV-R stopped-flow spectrophotometer (Applied Photophysics Ltd.) with temperature control (25° C.).
The reaction between 5-ax-hydroxy-5-eq-(2-hydroxyethyl)-trans-cyclooctene 14 and 3,6-dipyridyl-s-tetrazine-mono-succinamic acid 20 was monitored by a SX18MV-R stopped-flow spectrophotometer (Applied Photophysics Ltd.) at 325 nm by measuring the exponential decay of tetrazine under pseudo-first order conditions. Solutions of 14 (0.98, 1.46, 1.95, and 2.63 mM in 9:1 PBS/MeOH) and tetrazine (0.1 mM in PBS) were mixed in the stopped-flow spectrophotometer in equal volumes resulting in final concentrations of 0.49 mM, 0.73 mM, 0.97 mM, and 1.31 mM of 14 and 0.05 mM of tetrazine in 95:5 PBS/MeOH. Three independent samples were prepared for each TCO concentration and measurements were taken in duplicate every 0.1 ms for 0.1 sat 25° C. The observed rates kobs for each run were determined by nonlinear regression analysis of the data points using Prism software (Version 8.00, GraphPad Software Inc). The average kobs values were plotted against the concentrations of 14 to obtain the bimolecular rate constant k2 from the slope of the plot.
The observed rates (kobs) of 5-ax-hydroxy-5-eq-(2-hydroxyethyl)-trans-cyclooctene 14 (10-30 equivalents) and 3,6-dipyridyl-s-tetrazine-mono-succinamic acid 20 were measured using stopped-flow kinetics. The final concentrations of 14 after injection were (A) 0.49 mM, (B) 0.73 mM, (C) 0.97 mM, and (D) 1.31 mM and the concentration of tetrazine was 0.05 mM in 95:5 PBS/MeOH at 25° C. Duplicate measurements were obtained for three independent samples for each concentration of 14.
The reaction between 5-ax-hydroxy-trans-cyclooctene 4a and 3,6-dipyridyl-s-tetrazine-mono-succinamic acid 20 was monitored by a SX18MV-R stopped-flow spectrophotometer (Applied Photophysics Ltd.) at 325 nm by measuring the exponential decay of tetrazine under pseudo-first order conditions. Solutions of 4a (100, 200, 300, and 400 μM in 9:1 PBS/MeOH) and tetrazine (20 μM in PBS) were mixed in the stopped-flow […] 95:5 PBS/MeOH. Three independent samples were prepared for each TCO concentration and measurements were taken in duplicate every 0.1 ms for 0.2 s at 25° C. The observed rates kobs for each run were determined by nonlinear regression analysis of the data points using Prism software (Version 8.00, GraphPad Software Inc). The average kobs values were plotted against the concentrations of 4a to obtain the bimolecular rate constant k2 from the slope of the plot.
The observed rates (kobs) of 5-ax-hydroxy-trans-cyclooctene 4a (5-20 equivalents) and 3,6-dipyridyl-s-tetrazine-mono-succinamic acid 20 were measured using stopped-flow kinetics. […]

A short description of data set [3]: Stability with mercaptoethanol (25 mM) in phosphate buffered D2O, pD=7.4. The following applies: 25 mM mercaptoethanol. The class given is physicochemical. As for the experimental part: as §1
TCO 14 (3.1 mg, 18 μmol) in a solution of mercaptoethanol in phosphate buffered D2O (720 μL, 18 μmol, 25 mM, pD=7.4) was monitored by quantitative 1H NMR on a 600 MHz instrument to observe the decomposition of the trans-isomer over time. Methyl tert-butyl ether (2.1 μL, 18 μmol) was used as an internal standard. After 4 hours, 93% of 14 remained and 49% of 14 remained after 20 hours. (FIG. 6C). The results were plotted using Prism software (Version 8.00, GraphPad Software Inc). A waterfall plot of the ^1H NMR spectra is provided.
TCO 4a (2.3 mg, 18 μmol) in a solution of mercaptoethanol in phosphate buffered D2O (720 μL, 18 μmol, 25 mM, pD=7.4) was monitored by quantitative 1H NMR on a 600 MHz instrument to observe the decomposition of the trans-isomer over time. Methyl tert-butyl ether (2.1 μL, 18 μmol) was used as an internal standard. After 4 hours, 89% of 4a and 49% of 4a remained after 20 hours. (FIG. 6C). The results were plotted using Prism software (Version 8.00, GraphPad Software Inc). A waterfall plot of the ^1H NMR spectra is provided.

The nature of data set [4]: Stability in methanol-d4 (35 mM) by quantitative 1H NMR. The following applies: 35 mM in methanol-d4, after 7 days. The data set is classed as physicochemical. How it is done:
A solution of 14 (4.5 mg, 26 μmol) in methanol-d4 (750 μL) was monitored by quantitative ^1H NMR on a 600 MHz instrument to observe the decomposition of the trans-isomer over time. Methyl tert-butyl ether (3.1 μL, 26 μmol) was used as an internal standard. […] The results were plotted using Prism software (Version 8.00, GraphPad Software Inc). A waterfall plot of the ^1H NMR spectra is provided.
A solution of 4a (3.3 mg, 26 μmol) in methanol-d4 (750 μL) was monitored by quantitative ^1H NMR on a 600 MHz instrument to observe the decomposition of the trans-isomer over time. Methyl tert-butyl ether (3.1 μL, 26 μmol) was used as an internal standard. […] The results were plotted using Prism software (Version 8.00, GraphPad Software Inc). A waterfall plot of the ^1H NMR spectra is provided.

The source of these data is patent US20230331652A1, “TRANS-CYCLOOCTENES WITH HIGH REACTIVITY AND FAVORABLE PHYSIOCHEMICAL PROPERTIES” (University of Delaware, priority 2020, published 2023).

Consider `CN(C)c1ccc2c(-c3ccc(C(=O)NCCCCCNC(=O)OC[C@@H]4CC/C=C/CCO4)cc3C(=O)[O-])c3ccc(=[N+](C)C)cc-3oc2c1` (stereo in doubt) [TAMRA-oxo-TCO, (S,E)-2-(6-(dimethylamino)-3-(dimethyliminio)-3H-xanthen-9-yl)-5-((5-((((3,4,7,8-tetrahydro-2H-oxocin-2-yl)methoxy)carbonyl)amino)pentyl)carbamoyl)benzoate, reference compound], for which the “background fluorescence after 3 washings” value with HeLa cells (3 washes with DPBS) is recorded as “improved”. For the same compound, the “background fluorescence / washout after 2 hours” value in the data set with HeLa cells (media exchanges up to 2 hours) is given as “residual fluorescence”.

For the compound `OCC[C@]1(O)CC/C=C/CCC1` [Compound 14, 5-ax-Hydroxy-5-eq-(2-hydroxyethyl)-trans-cyclooctene], the TCO remaining in data set [1] (phosphate buffered D2O pD 7.4, 1 day (24 h), room temperature) is given as 90%; in data set [1] (phosphate buffered D2O pD 7.4, 5 days), 39%; in data set [3] (phosphate buffered D2O pD 7.4, 4 hours) it was 93%; in data set [3] (phosphate buffered D2O pD 7.4, 20 hours), 49%. The Kobs in data set [2] (A (0.49 mM) of 14, 0.05 mM tetrazine, 25° C.) came to 76.13; in data set [2] (B (0.73 mM) of 14, 0.05 mM tetrazine, 25° C.), 121.4; in data set [2] (C (0.97 mM) of 14, 0.05 mM tetrazine, 25° C.) it was 162.4; in data set [2] (D (1.31 mM) of 14, 0.05 mM tetrazine, 25° C.) it was 200.2. The “reactivity relative to oxo-TCO” value in data set [2] (comparison of k2 with oxo-TCO) is recorded as “more reactive than oxo-TCO”. In addition, the “reactivity toward 20 relative to 4a” value in data set [2] (ratio of k2 versus axial isomer 4a) is “more than twice as reactive”. In addition, in data set [2] (ratio of k2 versus equatorial isomer 4b), the “reactivity toward 20 relative to 4b” value was approximately 7 times. Also, in data set [2] (toward tetrazine 20, stopped flow, 25° C., 95:5 PBS:MeOH), the “second-order rate constant k2” value is 150,000±8000 M^−1s^−1. The “decomposition of the trans-isomer” value in data set [4] was “no observable decomposition”.
